Test results reported in patent publication US20190209548A1, “LINKED DIARYL COMPOUNDS WITH ANTICANCER PROPERTIES AND METHODS OF USING THE SAME” (University of Maryland, College Park, priority 2014, published 2019).

Legend:
27mer bcl-2 = experiment: ITC titration with bcl-2 G-quadruplex; format: binding
Protocol: (§1) Isothermal titration calorimetry. ITC experiments were performed using a VP-ITC calorimeter (GE-Healthcare). A typical ITC experiment involved as many as addition of 28 (10 μL) injections of as high as 1 mM ligand solutions into ˜1.5 mL of a dilute DNA solution (10 μM). Corrected titration curves were achieved by subtracting the blank titration data from the ITC-data for the ligand-DNA titrations. Corrected ITC titrations were fit with a nonlinear regression algorithm again using the CHASM ITC data analysis program developed in our laboratory.
(§2) DNA stock solutions were prepared by reconstituting the lyophilized oligonucleotide into 20 mM Tris buffer with a salt concentration of 100 mM KCl and a pH of 7.2. Approximately 2 mL of the oligonucleotide was dialyzed (1000 Mw cutoff membrane) against three changes of buffer solution (1 L, 24 h each) at 4° C. The concentrations of stock DNA solutions were verified using UV-Vis. G-Quadruplex DNAs were annealed by quickly heating to sample to 100° C., holding at 100° C. for ten minutes then slowly cooling to 5° C. over three hours period. Molar extinction coefficient of the DNAs were determined using a nearest-neighbor method for single stranded DNA. The extinction coefficients at 260 nm for the WT 27-mer bcl-2, WT 24-mer c-myc, WT 22-mer human telomere hTel sequences are 267,200 M^−1cm^−1, 248,100 M^−1cm^−1, and 228,500 M^−1cm^−1 respectively. The extinction coefficient at 260 nm for the 7 base pair hairpin with A2T2 (7 bp HP⋅AT) and the 7 base pair hairpin without A2T2 (7 bp HP) are 165,200 M^−1cm^−1 and 159,200 M^−1cm^−1 respectively. Cell culture grade water purchased from Corning was used for all experiments.

7bp HP = experiment: ITC titration with 7 bp hairpin without A2T2; format: binding; details: 20 mM Tris, 100 mM KCl, pH 7.2
Protocol: as §1
as §2, with “The extinction coefficient at 260 nm for the 7 base pair hairpin with A2T2 (7 bp HP⋅AT) and the 7 base pair hairpin without A2T2 (7 bp HP) are 165,200 M^−1cm^−1 and 159,200 M^−1cm^−1 respectively. Cell culture grade water purchased from Corning was used for all experiments.” left out

8 bp AT duplex DNA = experiment: UV-visible titration with duplex DNA; format: binding; details: ligand 10 μM
Protocol: UV titration studies of DNA with the triazene ligands, DMZ and Triazene-1. The molar extinction coefficients at 260 nm for 22-mer c-kit1, 18-mer VEGF, 23-mer bcl-2 2345, 15-mer TBA and 20-mer 8 bp AT are as follows 226,700 M^−1 cm^−1, 169,800 M^−1 cm^−1, 227,300 M^−1 cm^−1, 143,300 M^−1 cm^1 and 205,500 M^−1 cm^−1, respectively. The concentration of ligands used in this study was 10 μM and the DNA concentrations were 0, 0.25, 1.5, 3, 5, 6, 7, 8, 9, 10, 20, 30, 40, 50, 100, and 15 μM. The buffer contained 250 mM KCl, 50 mM Tris-HCl (at pH 7.5). The following quadruplex DNA were tested: c-kit1, VEGF, bcl-2 2345, and TBA. Duplex DNA (8 bp AT) was also tested. The sample was first heated up to 95° C. for 5 min without the ligand and then cooled down to room temperature in 15 min. The ligand was then added and the mixture was incubated at 4° C. for ˜12 h before recording the data. In case of Triazene-1 and Triazene-2, the sample mixture contained 1% DMSO.

[1] = test system: c-MYC protein in MDA-MB-231 cells; experiment: Western Blot of c-MYC protein expression; format: cell-based, human; details: 5.45 or 27.25 μM, 2, 6 or 24 hours
Protocol: FIG. 7. Western Blot analysis of c-MYC protein expression in MDA-MB-231 after treated with TMPyP4 and DMZ9. A, MDA-MB-231 cells were treated with DMSO vehicle, DMZ9 (5.45 […] and 27.25 μM), TMPyP4 (22.3 μM and 111.5 μM) for 2 h, 6 h and 24 h. Total protein was extracted and analyzed by Western Blot with 1:1,000 C-MYC (Cell Signaling) and 1:10,000 HRP-linked anti-rabbit IgG (Cell Signaling). * Observed high level of cytotoxicity and low protein levels. B and C, the graphs show the relative density as compared with the DMSO vehicle. Scanned images were analyzed using image J software.
Western Blot Analysis of c-MYC Protein Expression. C-MYC protein levels in MDA-MB-231 cells were evaluated by performing Western Blot. MDA-MB-231 breast cancer cells were treated with 22.3 or 111.5 μM TMPyP4 and 5.45 or 27.25 μM DMZ9 for 2, 6 or 24 hours.

[2] = test system: telomerase activity in MDA-MB-231; experiment: Telomerase activity assay (TRAPeze XL) in treated cells; format: cell-based, human
Protocol: Telomerase Activity Assay. MDA-MB-231 cells were routinely cultured in DMEM with 10% FBS and 1% L-glutamine. The evening prior to treatment, actively growing MDA-MB-231 cells were sub-cultured and seeded into T-25 flasks at 2×10^5 cells/flask. […] At 48 and 72 hours after treatment, cells were harvested, washed with PBS, and pelleted. Cell pellets were resuspended in 200 μl CHAPS lysis buffer with 200 units/mL RNase inhibitor, mixed by pipetting, and incubated on ice for 30 minutes. Lysates were then centrifuged at 12,000×g for 20 minutes at 4° C., and supernatants were collected, snap frozen, and stored at −80° C. until analysis. Telomerase activity was assayed using a fluorescence-based TRAPeze XL telomerase detection kit (Intergen, Purchase, N.Y.). According to manufacturer, lysates (1000 cell-equivalents) were mixed with TRAPeze XL reaction mix containing Amplifuor primers and incubated at 30° C. for 30 min to allow the elongation of “TS” primer by telomerase. Amplified telomerase products were quantitated with a fluorescence plate reader. Telomerase activity (in TPG units) was calculated by comparing the ratio of telomerase products to an internal standard for each lysate, as described by the manufacturer. Each unit of TPG (Total Product Generated) corresponds to the number of TS primers extended with at least 3 telomeric repeats by telomerase in the extract in a 30 minute incubation at 30° C.

[3] = ITC, 20 mM Tris, 100 mM KCl, pH 7.2

`N=C(N)c1ccc(/N=N/Nc2ccc(C(=N)N)cc2)cc1` [DMZ, Diminazene aceturate, reference compound] was tested, and the K1 (27mer bcl-2; [3]) was 8.8e+08 M⁻¹, the K2 (27mer bcl-2; [3]) was 1.9e+06 M⁻¹ and the K3 (27mer bcl-2; [3]) was 64000 M⁻¹. The Kd (27mer bcl-2; from ITC data, as low as, read-out: dissociation constant) was roughly 1 nM and the K2 (7bp HP) was 18000 M⁻¹.
`N=C(N)c1ccc(NN=Nc2ccccc2)cc1` [DMZ1] was tested, and the K1 (27mer bcl-2; [3]) was 3500 M⁻¹ and the “shift of absorption spectrum upon DNA titration” value (8 bp AT duplex DNA) was “no such shift was observed”.
`N=C(N)c1ccc(N=NNc2cccc(C#Cc3ccc(F)cc3)c2)cc1` [DMZ9] was tested, and the c-MYC protein expression [1] was “caused a decrease in the c-MYC protein expression” and the “inhibition of telomerase activity” value ([2]; 11 μM, 48 h or 72 h) was “up to 50%”.
In the case of `N=C(N)c1ccc(/N=N/Nc2ccccc2C#Cc2ccc(F)cc2)cc1` [DMZ13], the “inhibition of telomerase activity” value ([2]; 12.4 μM, 48 h) is reported as “about 20%” and the “inhibition of telomerase activity” value ([2]; 12.4 μM, 72 h) is reported as “about 30%”.
